Assay results: publication PMC12362783 (Advanced Science, 2025)

Key:
MDA‐MB‐231 = experiment: Cell growth inhibition, CellTiter‐Glo (CTG); type: cell-based
Procedure: (§1) All cells were grown in a humidified incubator at 37 °C and 5% CO2.
(§2) […] […] Relative viability was calculated by normalizing the raw luminescence counts of the treated groups to those of the DMSO control groups. IC₅₀ values were calculated using sigmoidal dose‐response curve fitting with GraphPad Prism 9.0 software.

MDA‐MB‐468 = experiment: Cell growth inhibition, CellTiter‐Glo (CTG); type: cell-based
Procedure: as §1, §2

MDA‐MB‐436 = experiment: Cell growth inhibition, CellTiter‐Glo (CTG); type: cell-based; conditions: Homo sapiens, MDA-MB-436, 120 h; CTG, 5 days, n = 3
MCF‐7 = experiment: Cell growth inhibition, CellTiter‐Glo (CTG); type: cell-based; conditions: Homo sapiens, MCF7; n = 3
Procedure: (§3) Growth viability was determined by the CellTiter‐Glo luminescent viability assay (Promega) 5 days after drug treatment. Cell viability was measured immediately after dosing (Day 0) and after 5 days of incubation using CellTiter‐Glo (CTG, Promega, G7573). Relative viability was calculated by normalizing the raw luminescence counts of the treated groups to those of the DMSO control groups. IC₅₀ values were calculated using sigmoidal dose‐response curve fitting with GraphPad Prism 9.0 software.

MDA‐MB‐453 = experiment: Cell growth inhibition, CellTiter‐Glo (CTG); type: cell-based; conditions: Homo sapiens, MDA-MB-453; n = 3; read-out: IC50 MAD‐MB‐453
Procedure: as §3

ATM = ATM (Homo sapiens, UniProt Q13315); experiment: PIKK family kinase selectivity; type: biochemical
Sequence of ATM (Q13315 whole entry, species assumed): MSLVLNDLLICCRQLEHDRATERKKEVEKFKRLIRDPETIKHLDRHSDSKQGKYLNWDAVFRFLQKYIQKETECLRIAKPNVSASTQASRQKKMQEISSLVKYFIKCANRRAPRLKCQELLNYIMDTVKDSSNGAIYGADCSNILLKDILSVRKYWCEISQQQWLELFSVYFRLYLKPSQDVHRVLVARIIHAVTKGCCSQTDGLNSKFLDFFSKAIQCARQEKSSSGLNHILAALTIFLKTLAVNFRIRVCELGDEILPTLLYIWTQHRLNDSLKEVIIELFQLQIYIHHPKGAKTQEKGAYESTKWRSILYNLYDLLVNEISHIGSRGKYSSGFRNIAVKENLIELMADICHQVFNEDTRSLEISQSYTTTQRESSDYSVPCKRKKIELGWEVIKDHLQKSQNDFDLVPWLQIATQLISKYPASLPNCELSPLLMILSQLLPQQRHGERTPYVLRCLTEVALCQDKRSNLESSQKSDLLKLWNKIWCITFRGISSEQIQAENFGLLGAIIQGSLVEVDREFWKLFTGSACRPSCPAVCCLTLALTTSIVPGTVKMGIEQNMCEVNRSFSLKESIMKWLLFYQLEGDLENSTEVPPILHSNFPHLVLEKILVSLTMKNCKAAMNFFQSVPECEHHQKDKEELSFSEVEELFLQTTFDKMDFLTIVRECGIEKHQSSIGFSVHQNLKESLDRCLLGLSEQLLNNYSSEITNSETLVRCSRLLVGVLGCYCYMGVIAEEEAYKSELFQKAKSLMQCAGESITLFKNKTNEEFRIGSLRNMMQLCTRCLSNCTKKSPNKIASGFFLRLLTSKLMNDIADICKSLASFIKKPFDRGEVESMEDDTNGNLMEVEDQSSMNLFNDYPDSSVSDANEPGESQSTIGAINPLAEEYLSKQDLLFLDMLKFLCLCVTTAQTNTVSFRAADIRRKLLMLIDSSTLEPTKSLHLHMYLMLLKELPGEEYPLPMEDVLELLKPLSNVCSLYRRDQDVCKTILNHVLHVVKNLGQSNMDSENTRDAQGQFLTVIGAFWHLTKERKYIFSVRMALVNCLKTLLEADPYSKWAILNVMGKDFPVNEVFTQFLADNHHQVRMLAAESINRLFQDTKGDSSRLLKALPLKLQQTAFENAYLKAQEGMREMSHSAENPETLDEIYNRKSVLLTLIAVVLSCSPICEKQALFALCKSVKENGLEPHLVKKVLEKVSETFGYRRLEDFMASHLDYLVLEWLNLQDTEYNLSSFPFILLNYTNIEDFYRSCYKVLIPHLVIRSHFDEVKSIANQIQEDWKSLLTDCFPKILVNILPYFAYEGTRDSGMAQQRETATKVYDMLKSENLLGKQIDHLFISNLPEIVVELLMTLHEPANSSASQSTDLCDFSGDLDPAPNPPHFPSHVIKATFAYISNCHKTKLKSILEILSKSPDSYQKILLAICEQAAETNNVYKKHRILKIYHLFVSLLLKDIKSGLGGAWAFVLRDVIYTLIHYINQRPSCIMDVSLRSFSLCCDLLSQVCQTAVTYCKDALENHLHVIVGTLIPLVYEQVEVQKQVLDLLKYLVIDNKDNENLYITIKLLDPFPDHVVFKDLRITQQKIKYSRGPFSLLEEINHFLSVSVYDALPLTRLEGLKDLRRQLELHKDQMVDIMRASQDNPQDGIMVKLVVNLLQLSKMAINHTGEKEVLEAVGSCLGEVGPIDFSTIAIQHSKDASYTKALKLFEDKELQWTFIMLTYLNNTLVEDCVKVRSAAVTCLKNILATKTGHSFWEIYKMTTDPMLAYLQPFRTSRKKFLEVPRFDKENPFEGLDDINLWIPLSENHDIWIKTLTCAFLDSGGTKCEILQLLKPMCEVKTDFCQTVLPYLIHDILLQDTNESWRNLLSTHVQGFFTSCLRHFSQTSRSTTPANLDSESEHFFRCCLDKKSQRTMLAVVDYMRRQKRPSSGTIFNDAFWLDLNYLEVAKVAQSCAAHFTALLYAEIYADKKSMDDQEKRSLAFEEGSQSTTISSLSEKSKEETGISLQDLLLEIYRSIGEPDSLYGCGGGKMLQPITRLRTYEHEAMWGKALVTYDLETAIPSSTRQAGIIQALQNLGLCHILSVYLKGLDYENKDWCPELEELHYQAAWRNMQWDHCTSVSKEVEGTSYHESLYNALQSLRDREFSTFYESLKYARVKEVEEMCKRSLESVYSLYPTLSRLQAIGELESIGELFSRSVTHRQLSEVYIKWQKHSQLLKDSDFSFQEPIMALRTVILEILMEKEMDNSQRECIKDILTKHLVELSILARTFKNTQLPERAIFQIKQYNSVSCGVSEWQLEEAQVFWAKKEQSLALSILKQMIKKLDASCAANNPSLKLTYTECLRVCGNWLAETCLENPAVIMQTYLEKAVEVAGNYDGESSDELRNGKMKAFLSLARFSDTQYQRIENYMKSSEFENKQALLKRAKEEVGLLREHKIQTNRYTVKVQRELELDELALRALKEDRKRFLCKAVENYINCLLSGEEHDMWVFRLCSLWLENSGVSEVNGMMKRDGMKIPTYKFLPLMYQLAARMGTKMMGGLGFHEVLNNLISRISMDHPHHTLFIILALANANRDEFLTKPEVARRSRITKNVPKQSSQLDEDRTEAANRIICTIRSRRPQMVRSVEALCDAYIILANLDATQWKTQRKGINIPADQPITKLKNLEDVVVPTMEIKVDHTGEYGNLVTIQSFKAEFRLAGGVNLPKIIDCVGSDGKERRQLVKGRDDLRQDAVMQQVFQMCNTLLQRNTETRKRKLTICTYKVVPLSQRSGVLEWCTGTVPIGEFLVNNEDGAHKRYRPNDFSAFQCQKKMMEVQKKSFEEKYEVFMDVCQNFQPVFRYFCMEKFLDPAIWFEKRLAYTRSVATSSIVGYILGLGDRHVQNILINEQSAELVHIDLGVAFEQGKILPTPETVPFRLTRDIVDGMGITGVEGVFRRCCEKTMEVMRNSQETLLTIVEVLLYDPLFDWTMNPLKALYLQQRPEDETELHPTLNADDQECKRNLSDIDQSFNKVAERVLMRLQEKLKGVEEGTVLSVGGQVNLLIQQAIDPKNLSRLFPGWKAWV

mTOR = mTOR (Homo sapiens, UniProt P42345); experiment: PIKK family kinase selectivity; type: biochemical; conditions: @2500 nM; read-out: mTOR inhibitory rate at certain concentration
MDA‐MB‐231 cells [1] = experiment: Cell cycle assay, flow cytometry (PI); type: cell-based; conditions: MDA‐MB‐231, 48 h; A7, B8 0.5 and 1.0 µM, controls 1.0 µM
Procedure: (§4) The cell cycle analysis was performed with cells seeded in 6‐well plates in growth media. The cells were allowed to attach overnight (8 h). The cultures were treated with different tested drugs for 48 h. After treatment, cells were collected and fixed with 70% pre‐cold ethanol in PBS and stored at −20 °C overnight. Then washed the cells with PBS twice, and incubated with 100 µg mL^−1 RNase A at 37 °C for 1 h, stained with propidium iodide for 30 min avoid light at room temperature. The stained cells were analyzed by flow cytometry. The percentages of cells in the G1, S, and G2/M phases were determined. The data were analyzed by FlowJo software (Tree Star, Inc., Ashland, OR).

MDA‐MB‐468 cells [2] = experiment: Cell cycle assay, flow cytometry (PI); type: cell-based; conditions: MDA‐MB‐468, 48 h; A7, B8 0.5 and 1.0 µM, controls 1.0 µM
Procedure: as §4

MDA‐MB‐231 cells [3] = experiment: Cell apoptosis assay, Annexin V‐FITC/PI; type: cell-based; conditions: MDA‐MB‐231, 72 h
Procedure: (§5) The cell apoptosis analysis was performed with cells seeded in 6‐well plates in growth media. The cells were allowed to attach overnight (8 h). The cultures were treated with different tested drugs for 72 h and evaluated using an Annexin V Flow Kit (BioLegend#B367750) according to the manufacturer's instructions. The data were analyzed by FlowJo software (Tree Star, Inc., Ashland, OR).

MDA‐MB‐468 cells [4] = experiment: Cell apoptosis assay, Annexin V‐FITC/PI; type: cell-based; conditions: MDA‐MB‐468, 72 h
Procedure: as §5

MDA‐MB‐231 cells [5] = experiment: Wound‐healing and transwell migration assay; type: cell-based; conditions: vs AZD6738 and Olaparib alone or their combination
Procedure: For the wound‐healing assay, MDA‐MB‐231 cells were seeded into 6‐well plates and grown to 80% confluence. A scratch was made in the cell monolayer using a 20 µL pipette tip, and the cells were washed with PBS to remove floating cells and debris. The cells were then incubated in serum‐free medium. Cells are divided into control and drug treatment Cells in the scratched area were imaged at 0 and 48 h using microscopy, and the distance traveled by cells at the leading edge of the wound at each time point was measured. To assess cell migration, a transwell assay was performed. […] Following 24 h of incubation, the filters were fixed in 4% paraformaldehyde, stained with 0.1% crystal violet, and then imaged and counted under a microscope to determine the number of invading cells. To assess cell invasion, the transwell plate was coated with a layer of Matrigel, and the rest procedure is similar to what has been described above.

MDA‐MB‐231 cells [6] = experiment: Comet assay, DNA damage; type: cell-based; conditions: 24 h, vs AZD6738, Olaparib, and their combination
MDA‐MB‐468 cells [7] = experiment: Western blotting analysis; type: cell-based; conditions: 48 h
Procedure: Cells were washed with cold PBS and lysed in RIPA buffer containing protease inhibitors (MCE, HY‐K0010). The lysate was centrifuged (13 000 rpm, 4 °C, 15 min); the protein concentrations were determined by the BCA Assay Kit (Beyotime, p0012s). Proteins were loaded onto 10% SDS‐PAGE gel and then transferred onto polyvinylidene fluoride (Millipore) membranes. The membranes were blocked for 1 h, incubated with primary antibodies overnight at 4 °C, and then washed three times with Tris‐buffered saline with Tween 20 (TBST) for 10 min. After incubating with the secondary HRP antibody for 1 h at room temperature, the membranes were washed three times with TBST for 10 min and then exposed on autoradiograph films using enhanced chemiluminescence. The primary antibodies used were ATR (1/1000 dilution, CST#13 934), PARP1 (1/1000 dilution, CST#9532), BCL‐2 (1/1000 dilution, CST#4223), Bax (1/1000 dilution, CST#5023), Caspase 3 (1/1000 dilution, CT#9662), Cleaved caspase 3 (1/1000 dilution, CST#9661), E‐cadherin (1/1000 dilution, CST#3195), Vimetin (1/1000 dilution, CST#5741), p‐CHK1 (1/1000 dilution, CST#2348), CHK1 (1/1000 dilution, CST#2360), CDK1 (Proteintech#19532‐1‐AP), p‐CDK1 (CST#9114), γH2AX (1/1000 dilution, CST#9718), and β‐Actin (1/1000 dilution, Proteintech# 66009‐1‐Ig).

[8] = 24, 48, 72 h treatment, Figure S2
[9] = compared to the combination group

C[C@@H]1COCCN1c1cc(CNC(=O)c2ccc(C(=O)N3CCN(C(=O)c4cc(Cc5n[nH]c(=O)c6ccccc56)ccc4F)CC3)cc2)nc(-c2ccnc3[nH]ccc23)n1 [Compound B8, (R)‐4‐(4‐(2‐fluoro‐5‐((4‐oxo‐3,4‐dihydrophthalazin‐1‐yl)methyl)benzoyl)piperazine‐1‐carbonyl)‐N‐((6‐(3‐methylmorpholino)‐2‐(1H‐pyrrolo[2,3‐b]pyridin‐4‐yl)pyrimidin‐4‐yl)methyl) benzamide]
anti‐proliferation effect at different time points (MDA‐MB‐231; [8]): exerted anti‐proliferation activity | IC50 (MDA‐MB‐231; Homo sapiens, MDA-MB-231, 120 h, read-out: IC50 MDA‐MB‐231, CTG, 5 days, n = 3): 1890 ± 130 nM | anti‐proliferation effect at different time points (MDA‐MB‐468; [8]): exerted anti‐proliferation activity | IC50 (MDA‐MB‐468; Homo sapiens, MDA-MB-468, 120 h, CTG, 5 days, n = 3): 320 ± 10 nM | IC50 (MDA‐MB‐436): 9 ± 2 nM | IC50 (MCF‐7): 970 ± 90 nM | IC50 (MDA‐MB‐453): 1080 ± 30 nM | IC50 (ATM): > 5000 nM | inhibition at […] (mTOR): 10.3% | effect on cell cycle distribution (MDA‐MB‐231 cells [1]): markedly increased the proportion of G2/M phase cells | effect on cell cycle distribution (MDA‐MB‐468 cells [2]): markedly increased the proportion of G2/M phase cells | ability to induce apoptosis vs combination of AZD6738 and Olaparib (MDA‐MB‐231 cells [3]): markedly stronger capacity to induce apoptosis | ability to induce apoptosis vs combination of AZD6738 and Olaparib (MDA‐MB‐468 cells [4]): markedly stronger capacity to induce apoptosis | migratory capacity (MDA‐MB‐231 cells [5]): superior inhibitory effect on the migratory capacity | comet assay tail intensity (MDA‐MB‐231 cells [6]): markedly increased tail intensity | BCL‐2 protein expression (Western blot) (MDA‐MB‐468 cells [7]): significantly decreased the protein expression of BCL‐2 | CDK1 Tyr15 phosphorylation (Western blot) (MDA‐MB‐468 cells [7]): enhanced CDK1 Tyr15 phosphorylation | CHK1 Ser345 phosphorylation (Western blot) (MDA‐MB‐468 cells [7]): significantly decreased CHK1 Ser345 phosphorylation | E‐cadherin expression (Western blot) (MDA‐MB‐468 cells [7]; [9]): significant increase in the expression of the epithelial cell marker E‐cadherin | Vimentin expression (Western blot) (MDA‐MB‐468 cells [7]; [9]): decrease in the expression of the mesenchymal cell marker Vimentin | BAX and cleaved‐caspase‐3 protein expression (Western blot) (MDA‐MB‐468 cells [7]; compared to the combination of AZD6738 and Olaparib): induced more BAX and cleaved‐caspase‐3 protein expression | DSB marker γH2AX (Western blot) (MDA‐MB‐468 cells [7]; B8 1.0 and 2.0 µM): significantly increased than under the combination treatment | protein levels of ATR and PARP1 (Western blot) (MDA‐MB‐468 cells [7]; B8 1.0 and 2.0 µM, vs Olaparib or AZD6738 alone or in combination): reduction in the protein levels of both ATR and PARP1
